Type in all cases: physicochemical
The nature of series [1]: Anisidine Value (AV, secondary oxidation products) according to Ph. Eur. 2.5.36, before and after storage at 50° C. exposed to air. Particulars: for Anisidine Value: as obtained / as supplied (experiments 1-4). The protocol: An exemplary procedure for determining the Anisidine Value (AV) of a sample is performed as follows:
The anisidine value is defined as 100 times the optical density measured in a 1 cm cell of a solution containing 1 g of the substance to be examined in 100 ml of a mixture of solvents and reagents according to the following method. Carry out the operations as rapidly as possible, avoiding exposure to actinic light.
Test solution (a): Dissolve 0.500 g of the substance to be examined in trimethylpentane and dilute to 25.0 ml with the same solvent.
Test solution (b): To 5.0 ml of test solution (a) add 1.0 ml of a 2.5 g/I solution of p-anisidine in glacial acetic acid, shake and store protected from light.
Reference solution: To 5.0 ml of trimethylpentane add 1.0 ml of a 2.5 g/I solution of p-anisidine in glacial acetic acid, shake and store protected from light. Measure the absorbance of test solution (a) at the maximum at 350 nm using trimethylpentane as the compensation liquid. Measure the absorbance of test solution (b) at 350 nm exactly 10 min after its preparation, using the reference solution as the compensation liquid. Calculate the anisidine value (AV) from the expression:
(§1) Primary oxidation products (hydroperoxides at double bonds) were quantified by determining the Peroxide Value (PV) according to Ph. Eur. 2.5.5 (01/2008:20505). Secondary oxidation products (carbonyl compounds) were quantified by determining the Anisidine Value (AV) according to Ph. Eur. 2.5.36 (01/2008:20536).
(§2) 30 g each of the liquid ethyl arachidonic acid glycerin ester and the gamma-linolenic acid ethyl ester used in experiments 1 and 2 as well as of the arachidonic acids and the gamma-linolenic acid obtained in experiments 1 and 2 were filled into 500 ml Schott Duran glass bottles.
(§3) About 30 g each of the solid lysine-salts ARA-Lys and GLA-Lys obtained in experiments 3 and 4 were filled Schott Duran glass bottles.
(§4) All of the bottles were placed together with opened lids in a drying oven with an opened ventilation valve at 50° C. and stored in the dark under these conditions for 81 days.

Series [2] can be described thus: Peroxide Value (PV, primary oxidation products) according to Ph. Eur. 2.5.5, before and after storage at 50° C. exposed to air. The protocol:
An exemplary procedure for determining the Peroxide Value (PV) of a sample is performed as follows:
Peroxide value=(S−B)*N thiosulfate*1000/weight of sample
as §1, §2, §3, §4

Series [3] can be described thus: Oligomer content by gel-chromatography (GPC, RI detector). Particulars: as obtained. The protocol:
Oligomeric PUFA constituents as well as their derivatives (collectively referred to as oligomer content) were quantified by gel-chromatographic means (GPC, styroldivinylbenzene-phase with tetrahydrofuran containing trifluoroacetic acid used as eluent). A refractive index (RI) detector was used for detection. Due to the fact that specific response factors of the constituents of the samples were unknown, proportions were calculated based upon fractional proportions of the total area of chromatograms.

Where [4] appears, read: t = 81 days, open bottles, 50° C., exposed to air, in the dark.

The source of these data is patent publication US20170367394A1, “PROCESS FOR INCREASING THE STABILITY OF A COMPOSITION COMPRISING POLYUNSATURATED OMEGA-6 FATTY ACIDS” (Evonik Degussa GmbH, priority 2014, published 2017).

In turn, `CCCCC/C=C\C/C=C\C/C=C\C/C=C\CCCC(=O)O` [ARA-OH, all-cis-5,8,11,14-eicosatetraenoic acid] returned an Anisidine Value in series [1] of 4.2. The “Anisidine Value (AV)” value in series [1] (t = 0, before storage) worked out at 4.2 A/g; in series [1] (setting [4]), 211 A/g. Also, in series [2] (as obtained (experiments 1-4)), the “Peroxide Value” is listed as 7.2 mmol/kg. Moreover, the “Peroxide Value (PV)” value in series [2] (t = 0, before storage) turned out to be 7.2 mmol/kg; in series [2] (setting [4]), 5.8 mmol/kg.
As to `CCCCC/C=C\C/C=C\C/C=C\CCCCC(=O)OCC` [GLA-OEt, gamma-linolenic acid ethyl ester], the Anisidine Value in series [1] was 19.1. Moreover, the “Anisidine Value (AV)” value in series [1] (t = 0, before storage) was found to be 19.1 A/g; in series [1] (setting [4]), 1237 A/g. The compound also returned a Peroxide Value in series [2] (commercially available starting material as supplied) of 52.1 mmol/kg. Also, the “Peroxide Value (PV)” value in series [2] (t = 0, before storage) is reported as 52.1 mmol/kg; in series [2] (setting [4]), 86.3 mmol/kg.
For `CCCCC/C=C\C/C=C\C/C=C\CCCCC(=O)O` [GLA-OH, gamma-linolenic acid], in series [1], the Anisidine Value is 7.6. Also, the “Anisidine Value (AV)” value in series [1] (t = 0, before storage) is 7.6 A/g; in series [1] (setting [4]), 137 A/g. Also, in series [3], the Oligomer content is reported as 0.3 area-%. Besides, the “Peroxide Value” in series [2] (as obtained (experiments 1-4)) is recorded as 5.6 mmol/kg. Moreover, the “Peroxide Value (PV)” value in series [2] (t = 0, before storage) is listed as 5.6 mmol/kg; in series [2] (setting [4]) it was 1.3 mmol/kg.
On to “Arachidonic acid-L-Lysine Salt [ARA-Lys]”, for which the Anisidine Value in series [1] came out at 1. The “Anisidine Value (AV)” value in series [1] (t = 0, before storage) is on record as 1 A/g; in series [1] (setting [4]), <1 A/g. The compound also displayed an Oligomer content in series [3] of 1.1 area-%. The “Peroxide Value” in series [2] (as obtained (experiments 1-4)) was < 1 mmol/kg. Also, the “Peroxide Value (PV)” value in series [2] (t = 0, before storage) is <1 mmol/kg; in series [2] (setting [4]) it was <1 mmol/kg.
With “Gamma-Linolenic acid-L-Lysine Salt [GLA-Lys]”, in series [1], the Anisidine Value was 5.4. Moreover, the “Anisidine Value (AV)” value was 5.4 A/g in series [1] (t = 0, before storage) and <1 A/g in series [1] (setting [4]). This compound gave an Oligomer content in series [3] of 0.6 area-%. Besides, the “Peroxide Value” in series [2] (as obtained (experiments 1-4)) is 1.0 mmol/kg. Moreover, the “Peroxide Value (PV)” value was 1.0 mmol/kg in series [2] (t = 0, before storage) and <1 mmol/kg in series [2] (setting [4]).
